Results taken from patent publication US20250367170A1, “TOPICAL ANGIOTENSIN II RECEPTOR BLOCKERS (ARBS) FOR TREATING EYE CONDITIONS” (The Cleveland Clinic Foundation, priority 2022, published 2025).

Assays:
Type in all cases: in vivo, New Zealand White rabbits
[1] = tested on: α-smooth muscle actin (SMA) marker for myofibroblasts; experiment: IHC for SMA, area of SMA-positive posterior fibrotic stroma (QuPath) after Descemetorhexis
Experimental: At one month after surgery and treatment, an intravenous injection of 100 mg/kg Beuthanasia (Shering-Plough, Kenilworth, NJ) was given for euthanasia with the animals under general anaesthesia. Sharp Westcott scissors (Fairfield, CT, USA) and 0.12 forceps (Storz, St. Louis, MO) were used to remove the comeo-scleral rims of the sham unwounded and DMR eyes without touching the cornea. Each cornea was set in the center of a 24×24×5 mm mold (Fisher Scientific, Pittsburgh, PA, USA) and the mold was filled in liquid OCT compound (Sakura Finetek, Torrance, CA, USA). The molds and cornea-scleral rims were quick frozen on dry ice and stored at −80° C. until sections were cut.
Each OCT block was bisected in the exact center of the cornea, and 8 μm thick transverse sections were cut from the central cornea within the previous DMR injury or unwounded sham surgery corneas with a cryostat (HM 505M; Micron GmbH, Walldorf, Germany) and three sections per slide were placed on 25 mm×75 mm×1 mm Superfrost Plus microscope slides (Fisher Scientific, Pittsburgh, PA, USA). Slides were maintained at −20° C. until immunohistochemistry.
Duplex immunohistochemistry (IHC) was performed after masking of slides by a researcher not involved in the analysis using previously described methods (de Oliveira et al., 2021) using primary antibodies (Table 2) confirmed by western blotting and IHC to recognize rabbit antigens or isotypic control antibodies (ThermoFisher Scientific, Waltham, MA), and secondary fluorescent tagged antibodies (Table 3).
The area of the SMA-positive posterior fibrotic stroma was quantitated with the original groups masked to the analyzer by standardized photography with a lOx objective on a Leica DM6B upright microscope equipped with an automated stage and Leica 7000 T camera using the LAS X software (Leica Microsystems, GmbH, Wetzlar, Germany). The area of the SMA-positive posterior stromal fibrosis was measured by manually outlining the area on the cornea sections with calibrated QuPath v0.2.3 software using previously described methods (Bankhead et al., 2017). Statistical analysis for the area of SMA-positive fibrosis was performed using the Kruskal-Wallis test followed by post-hoc Dunn's-Bonferroni test and p<0.05 was considered statistically significant.

[2] = tested on: rabbit corneas after 1N NaOH alkali burn injury; experiment: Slit lamp stromal opacity area and intensity (ImageJ) one month after alkali burn; conditions: topical 0.2 mg/ml losartan and/or 1% prednisolone acetate six times per day
Experimental: All animal treatments and care were approved by the Institutional Animal Care and Use Committee (IACUC) at the Cleveland Clinic Foundation (Cleveland, OH, USA) and the Animal Care and Use Review Office of the Department of the Army (Fort Detrick, MD). All rabbits were treated in accordance with the tenets of the ARVO Statement for the Use of Animals in Ophthalmic and Vision Research. Sixteen 10- to 15-week-old female New Zealand White rabbits weighing 2.5 to 3.0 kg each were included in this example.
Alkali injuries were produced in one eye of rabbits with previously published methods^10 using 1N sodium hydroxide (Sigma, St. Louis, MO) in balanced salt solution (BSS, 0.64% sodium chloride, 0.075% potassium chloride, 0.048% calcium chloride dihydrate, 0.03% magnesium chloride hexahydrate, 0.39% sodium acetate trihydrate, 0.17% sodium citrate dihydrate, pH 7.5, Alcon, Ft. Worth, TX) and a 5 mm diameter circular Whatman No. 1 filter paper (Cat #1001-6508, Fisher Scientific) wetted with 100 μl of 1N NaOH solution. Following the alkali burn injury, the cornea was irrigated profusely with BSS. Each injured cornea also received one drop of ciprofloxacin (Alcon, Ft. Worth, TX, USA) ten minutes after surgery and four times a day for one week and at least 15 minutes apart from the study medications.
Worth TX), at least 5 minutes apart, or 4) 50 μl of BSS.
At one month after sodium hydroxide exposure and treatments, with the rabbits under ketamine-xylazine general anesthesia, the eyes were dilated with two drops of 1% tropicamide (Akom Co., Lake Forest, IL) for thirty minutes. The study eye in each rabbit had slit lamp photographs with standardized illumination level and angle of illumination at 20× magnification with a Topcon (Oakland, NJ, USA) SL-D7 slit lamp photography system. For each study eye, the total area of opacity was determined by outlining the opacity with the freehand selection tool using ImageJ 1.53a analysis software calibrated to mm^2. The “raw internal density” in pixels for the opacified area in each cornea was also determined using ImageJ.

collagen type IV = experiment: IHC collagen type IV intensity in anterior and posterior stroma after alkali burn; conditions: one month
Experimental: Multiplex immunohistochemistry (IHC) was performed using previously described methods^8 and primary antibodies (Table 7) confirmed by western blotting and IHC to recognize rabbit antigens or isotypic control antibodies (Thermo Fisher Scientific, Waltham, MA), and secondary fluorescent tagged antibodies (Table 7). The collagen type IV antibody (Cat. #AB769, Millipore, Temecula CA) was raised against purified human and bovine collagen type IV that had been affinity purified with human and bovine collagen type IV crosslinked to agarose and cross-absorbed by the manufacturer with human and bovine collagens type I, II, III, V and VI to eliminate cross-reactivity. This collagen type IV antibody was shown previously to bind rabbit collagen IV in IHC,^8,9 and recognizes the alpha-1/alpha-2 chains but not the alpha-3 to alpha-6 chains. The keratocan antibody is raised against peptide […]-OH (SEQ ID NO:1). This marker was used to identify keratocytes in situ. […] All corneas in each group had IHC for collagen type IV. Images from each cornea were converted to uniform 300 DPI, 875×568 pixel, files. […] The staining intensity within each box was determined with the analyze histogram function and the mean of three boxes was the intensity value in the anterior or posterior stroma for that cornea.

SMILES: CCCCc1nc(Cl)c(CO)n1Cc1ccc(-c2ccccc2-c2nn[nH]n2)cc1 [losartan]
- posterior fibrosis compared with topical and oral vehicle ([1]; Descemetorhexis, oral 5 mg/kg three times per day, one month): similar
- mean SMA-positive posterior fibrotic area vs vehicles or topical and oral losartan ([1]; Descemetorhexis, oral losartan alone, one month): not statistically significantly different
- mean SMA-positive posterior fibrotic area compared to the other Descemetorhexis groups ([1]; Descemetorhexis, topical 0.1 mg/ml six times a day, one month): significantly lower
- SMA-positive fibrotic zone in the posterior cornea ([1]; Descemetorhexis, topical 0.1 mg/ml six times per day, one month): marked decrease
- SMA-positive fibrosis in the posterior cornea ([1]; Descemetorhexis, topical six times per day and oral three times per day, one month): decrease
- SMA-positive posterior corneal fibrosis in uninjured corneas ([1]; oral three times a day): did not develop
- SMA-positive posterior corneal fibrosis in uninjured corneas ([1]; topical six times a day): did not develop
- total corneal opacity area measured with ImageJ, vs BSS vehicle [2]: decreased
- total opacity in pixels in the opacified area of cornea, vs vehicle BSS group [2]: significantly lower
- COL IV staining intensity in the posterior stroma vs vehicle (collagen type IV): significantly different
- mean intensity units of collagen type IV in the anterior stroma vs vehicle (collagen type IV): significantly decreased
